The results in this text go back to US8859760B2, “Compositions for killing or preventing the growth of microbes” (priority 2008, dated 2014).

The data set relates to skin of the mice. Description: Skin irritation test in mice (Draize scoring, Primary Irritation Index). Type of data set: in vivo, Balb/c mice. The note with it: for primary irritation index: 24 hr exposure, scored at 24 and 72 hours; for primary irritation index / evaluation of primary irritation index: mice; for mice with very slight erythema: n=6. As for the experimental part: Lauryl methyl pyrifrin and TMP, two synthesized meso-substituted cationic porphyrins, were tested in vivo to determine the dermal irritation potential to the skin of the mice. The two test agents were prepared with three different concentrations individually, 3 μM, 30 μM, and 300 μM. 10% formic acid and PBS were used as positive and negative control respectively (n=6). […] The back of the animals were clipped free of fur with an electric clipper at least 4 hours before application of the sample. Prior to the application of test agents, each mouse received four parallel epidermal abrasions with a sterile needle at one side of the test area while the skin at the opposite side remained intact. Under anesthesia condition, a 0.5 ml sample of the test article was then applied to each mouse by introduction under a double gauze layer to an area of skin approximately 1″×1″ (2.54×2.54 cm) square. The patches were backed with plastic, covered with a non reactive tape and the entire test site wrapped with a binder. Animals will be returned to their cages. […] The Primary Irritation Index (P.I.I.) (sum of the scored reactions divided by 24 (two scoring intervals multiplied by two test parameters multiplied by six mice)) of the test article was calculated following test completion. A material producing a P.I.I. score of greater than or equal to 5.00 would be considered positive; the material would be considered a primary irritant to the skin (Table 2).

The compound `CCCCCCCCCCCC[n+]1ccc(-c2c3nc(c(-c4cc[n+](C)cc4)c4ccc([nH]4)c(-c4cc[n+](C)cc4)c4nc(c(-c5cc[n+](C)cc5)c5ccc2[nH]5)C=C4)C=C3)cc1.Cc1ccc(S(=O)(=O)[O-])cc1.Cc1ccc(S(=O)(=O)[O-])cc1.Cc1ccc(S(=O)(=O)[O-])cc1.Cc1ccc(S(=O)(=O)[O-])cc1` [lauryl methyl pyrifrin] had a primary irritation index (3 μM) of 0.00, a primary irritation index (30 μM) of 0.175 and a primary irritation index (300 μM) of 1.4. Moreover, the “evaluation of primary irritation index” value (3 μM) is “no irritation”, the “evaluation of primary irritation index” value (30 μM) is listed as “irritation barely perceptible” and the “evaluation of primary irritation index” value (300 μM) is on record as “slight irritation”. Besides, the erythema observed result (30 μM, after 24 hours, abraded area implied) is “very slight erythema”; the erythema observed result (30 μM, after 72 hours) was “very slight erythema”; the erythema observed entry (300 μM, after 24 hours, abraded area implied) is recorded as “very slight erythema”. Besides, the “mice with very slight erythema” value was 2/6 (30 μM, after 24 hours) and 6/6 (300 μM, after 24 hours). In addition, the edema observed result (300 μM, after 24 hours) is “Slight edema”. Besides, the “erythema and edema at the intact area” value (intact area, all concentrations except 300 μM TMP) was “no erythema and edema”.
